Measured values: publication PMC11211886 (Frontiers in Pharmacology, 2024)

Columns and labels:
BCRP = target: T1, BCRP (Homo sapiens, UniProt Q9UNQ0); experiment: in vitro; settings: Caco-2
T1 sequence (Q9UNQ0 1-655): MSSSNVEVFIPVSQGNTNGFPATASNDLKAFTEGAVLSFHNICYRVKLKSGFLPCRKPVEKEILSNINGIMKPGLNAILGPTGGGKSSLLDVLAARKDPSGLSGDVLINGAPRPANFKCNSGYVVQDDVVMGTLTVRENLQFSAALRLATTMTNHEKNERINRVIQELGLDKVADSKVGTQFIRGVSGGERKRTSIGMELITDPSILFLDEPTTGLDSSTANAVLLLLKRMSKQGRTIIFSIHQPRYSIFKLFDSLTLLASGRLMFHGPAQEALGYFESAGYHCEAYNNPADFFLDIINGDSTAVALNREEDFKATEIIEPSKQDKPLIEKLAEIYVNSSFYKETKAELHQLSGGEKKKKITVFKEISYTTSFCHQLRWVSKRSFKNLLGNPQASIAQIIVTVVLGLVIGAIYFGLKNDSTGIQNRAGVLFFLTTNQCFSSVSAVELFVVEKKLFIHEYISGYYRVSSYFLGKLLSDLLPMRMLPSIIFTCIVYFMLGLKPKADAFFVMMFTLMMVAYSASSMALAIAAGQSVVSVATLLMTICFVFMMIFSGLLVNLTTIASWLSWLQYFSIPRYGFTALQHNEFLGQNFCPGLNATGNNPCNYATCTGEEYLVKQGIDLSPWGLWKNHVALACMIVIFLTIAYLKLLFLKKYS
Description: (§1) The experimental conditions were similar to those of the permeability study.

CYP2B6 mRNA = experiment: CYP induction in human hepatocytes, CYP2B6 mRNA (RT-PCR); settings: human five, Gene expression Fold Induction, CYP2B6, donor seven, 1000 µM
Description: (§2) […] […] […] Enzyme activity for each CYP isoform was reported as a fold change over vehicle control and the percent of positive control (detailed calculation in Supplementary 1.1). Hepatocytes were harvested with a lysis buffer from RNeasy 96 Kit (Qiagen Inc., Germantown, MD, USA) to isolate RNA, which was analyzed by real-time quantitative polymerase chain reaction (RT-PCR). […] Emax (the maximal observed induction) and EC50 (the concentration that supports half-maximal induction) were estimated by non-linear regression of fold increase in CYP mRNA expression versus concentration plots.
(§3) % of positive control = [(fold change in treated sample)-1] / [(fold change in positive control)-1] × 100
(§4) Based on the gene expression, a minimum of 4-fold increase of positive control compared to vehicle control, a minimum of 2-fold increase of the test article compared vehicle control and increased in a concentration-dependent manner was considered as the cutoff for a positive signal in in vitro induction assay.

P-gp = P-gp (Homo sapiens, UniProt P08183); experiment: in vitro; settings: human, Caco-2
Description: as §1

OATP1B1 = target: T2, OATP1B1 (Homo sapiens, UniProt Q9Y6L6); experiment: OATP1B1 inhibition, β-estradiol 17-(β-D-glucuronide) uptake in transfected HEK293 cells
T2 sequence (Q9Y6L6 1-691): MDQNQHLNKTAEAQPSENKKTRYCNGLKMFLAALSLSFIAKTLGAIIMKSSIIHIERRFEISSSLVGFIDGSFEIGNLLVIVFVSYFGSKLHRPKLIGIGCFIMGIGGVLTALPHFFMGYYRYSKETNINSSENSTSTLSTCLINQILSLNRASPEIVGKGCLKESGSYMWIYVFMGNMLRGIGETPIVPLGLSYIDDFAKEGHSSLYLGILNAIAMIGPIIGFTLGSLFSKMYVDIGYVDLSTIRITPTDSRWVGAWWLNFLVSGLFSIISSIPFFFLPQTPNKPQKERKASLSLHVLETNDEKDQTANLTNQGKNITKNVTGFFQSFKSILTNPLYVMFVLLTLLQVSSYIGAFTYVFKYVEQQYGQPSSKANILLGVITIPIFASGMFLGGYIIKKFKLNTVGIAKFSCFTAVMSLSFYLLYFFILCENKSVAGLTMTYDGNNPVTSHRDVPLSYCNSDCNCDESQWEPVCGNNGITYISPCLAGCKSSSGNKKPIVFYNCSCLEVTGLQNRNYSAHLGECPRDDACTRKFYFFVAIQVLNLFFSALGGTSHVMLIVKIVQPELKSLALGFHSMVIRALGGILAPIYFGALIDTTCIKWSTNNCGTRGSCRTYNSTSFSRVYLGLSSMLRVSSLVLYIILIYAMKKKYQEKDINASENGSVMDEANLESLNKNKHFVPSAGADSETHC
Description: (§5) The pre-incubation solutions were removed, and incubation solutions containing the inhibitors and probe substrates (or transport buffer containing an equal volume of vehicle control and probe substrates) were added and incubated at 37°C for 2 min (5 min for OATP1B3). The probe substrate for OAT1 was 4-aminohippuric acid (10 μM), for OAT3 was estrone 3-sulfate (10 μM), for OCT2 was metformin (100 μM), for OATP1B1 was β-estradiol 17-(β-D-glucuronide) (5 μM), for OATP1B3 was β-estradiol 17-(β-D-glucuronide) (10 μM), and for MATE1 and MATE2-K was tetraethylammonium (10 μM). After incubation, cells were washed three times with ice-cold transport buffer (25 mM HEPES, pH 7.4, pH 8.0 for overexpressing MATE1 and MATE2-K HEK293 cells) and lysed in distilled water. The concentrations of probe substrates were determined by LC-MS/MS, and a BCA Kit (Solarbio ®Life Sciences, Beijing, China) was used to determine the protein content in the cell lysate.
(§6) where C is the concentration of the drug in the cell lysate (nM), P is the protein concentration of the cell lysate (mg/mL), and T is the incubation time (minute). Uptake ratetest compound is the uptake rate of the substrate in the presence of the test compound. Uptake ratevehicle control is the uptake rate of the substrate in the presence of the vehicle control. Uptake ratepassive is the uptake rate of the substrate in the presence of the positive inhibitor at the top test concentration.

OATP1B3 = target: T3, OATP1B3 (Homo sapiens, UniProt Q9NPD5); experiment: OATP1B3 inhibition, β-estradiol 17-(β-D-glucuronide) uptake in transfected HEK293 cells
T3 sequence (Q9NPD5 1-702): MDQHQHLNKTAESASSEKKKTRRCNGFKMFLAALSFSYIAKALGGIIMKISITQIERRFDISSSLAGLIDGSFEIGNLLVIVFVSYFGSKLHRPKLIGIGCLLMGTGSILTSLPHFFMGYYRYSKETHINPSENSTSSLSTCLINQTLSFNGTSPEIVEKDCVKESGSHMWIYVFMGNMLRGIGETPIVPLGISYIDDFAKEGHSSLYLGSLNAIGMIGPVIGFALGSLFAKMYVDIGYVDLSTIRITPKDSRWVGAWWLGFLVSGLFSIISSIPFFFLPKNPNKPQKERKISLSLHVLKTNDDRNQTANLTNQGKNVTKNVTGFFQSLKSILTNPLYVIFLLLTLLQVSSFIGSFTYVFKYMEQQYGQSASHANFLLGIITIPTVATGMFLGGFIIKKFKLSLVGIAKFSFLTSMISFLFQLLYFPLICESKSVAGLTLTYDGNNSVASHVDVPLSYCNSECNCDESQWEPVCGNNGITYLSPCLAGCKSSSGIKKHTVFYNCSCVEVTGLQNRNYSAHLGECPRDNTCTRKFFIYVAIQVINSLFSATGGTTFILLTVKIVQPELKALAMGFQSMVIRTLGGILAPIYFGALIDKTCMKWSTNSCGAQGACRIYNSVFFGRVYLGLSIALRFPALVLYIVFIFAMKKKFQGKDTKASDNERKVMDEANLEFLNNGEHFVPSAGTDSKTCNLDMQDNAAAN
Description: as §5, §6

CYP1A2 mRNA = experiment: in vitro; settings: human; for fold induction at 48 h, 50 µM: Gene expression Fold Induction
Description: as §2, §3, §4

CYP1A2 = experiment: in vitro; settings: human; for fold induction at 48 h, 50 µM: Enzyme activity Fold Induction
Description: as §2
(§7) The fold of vehicle control and the percent of positive control were calculated with the formulas below:
(§8) Fold of vehicle control = CYPs activity of test compound (or positive control) treated sample / CYPs activity of vehicle control treated sample
as §3
(§9) Based on the enzyme activity, a minimum of 2-fold increase compared to vehicle control for the positive control and ≥40% of the positive control for the test article was considered as the cutoff for a positive signal in in vitro induction assay.

[1] = Caco-2 bidirectional transport permeability; format: in vitro ADME, human; settings: human
Description: The passage number of cells used in this study was 39. Non-specific binding to the device surfaces and the aqueous solubility of test compounds were tested before the transport experiment. […] The integrity of the monolayer was estimated by measuring transepithelial electrical resistance (TEER). Only the monolayers with TEER over 150 Ω were used for the studies.

CYP2C9 = experiment: in vitro; settings: human; for fold induction at 48 h, 25 µM: Enzyme activity Fold Induction
Description: as §2, §7, §8, §3, §9

CYP2C8 = experiment: in vitro; settings: human; for fold induction at 48 h, 25 µM: Enzyme activity Fold Induction
Description: as §2, §7, §8, §3, §9

CYP2C8 mRNA = experiment: in vitro; settings: human; for fold induction at 48 h, 25 µM: Gene expression Fold Induction
Description: as §2, §3, §4

CYP2C9 mRNA = experiment: CYP induction in human hepatocytes, CYP2C9 mRNA (RT-PCR); settings: for Gene expression Percent of PC (%): 25 µM
Description: as §2, §3, §4

CYP2C19 = experiment: CYP induction in human hepatocytes, CYP2C19 enzyme activity; format: in vitro ADME; settings: 25 µM
Description: as §2, §7, §8, §3, §9

P-gp, sequence (P08183 whole entry): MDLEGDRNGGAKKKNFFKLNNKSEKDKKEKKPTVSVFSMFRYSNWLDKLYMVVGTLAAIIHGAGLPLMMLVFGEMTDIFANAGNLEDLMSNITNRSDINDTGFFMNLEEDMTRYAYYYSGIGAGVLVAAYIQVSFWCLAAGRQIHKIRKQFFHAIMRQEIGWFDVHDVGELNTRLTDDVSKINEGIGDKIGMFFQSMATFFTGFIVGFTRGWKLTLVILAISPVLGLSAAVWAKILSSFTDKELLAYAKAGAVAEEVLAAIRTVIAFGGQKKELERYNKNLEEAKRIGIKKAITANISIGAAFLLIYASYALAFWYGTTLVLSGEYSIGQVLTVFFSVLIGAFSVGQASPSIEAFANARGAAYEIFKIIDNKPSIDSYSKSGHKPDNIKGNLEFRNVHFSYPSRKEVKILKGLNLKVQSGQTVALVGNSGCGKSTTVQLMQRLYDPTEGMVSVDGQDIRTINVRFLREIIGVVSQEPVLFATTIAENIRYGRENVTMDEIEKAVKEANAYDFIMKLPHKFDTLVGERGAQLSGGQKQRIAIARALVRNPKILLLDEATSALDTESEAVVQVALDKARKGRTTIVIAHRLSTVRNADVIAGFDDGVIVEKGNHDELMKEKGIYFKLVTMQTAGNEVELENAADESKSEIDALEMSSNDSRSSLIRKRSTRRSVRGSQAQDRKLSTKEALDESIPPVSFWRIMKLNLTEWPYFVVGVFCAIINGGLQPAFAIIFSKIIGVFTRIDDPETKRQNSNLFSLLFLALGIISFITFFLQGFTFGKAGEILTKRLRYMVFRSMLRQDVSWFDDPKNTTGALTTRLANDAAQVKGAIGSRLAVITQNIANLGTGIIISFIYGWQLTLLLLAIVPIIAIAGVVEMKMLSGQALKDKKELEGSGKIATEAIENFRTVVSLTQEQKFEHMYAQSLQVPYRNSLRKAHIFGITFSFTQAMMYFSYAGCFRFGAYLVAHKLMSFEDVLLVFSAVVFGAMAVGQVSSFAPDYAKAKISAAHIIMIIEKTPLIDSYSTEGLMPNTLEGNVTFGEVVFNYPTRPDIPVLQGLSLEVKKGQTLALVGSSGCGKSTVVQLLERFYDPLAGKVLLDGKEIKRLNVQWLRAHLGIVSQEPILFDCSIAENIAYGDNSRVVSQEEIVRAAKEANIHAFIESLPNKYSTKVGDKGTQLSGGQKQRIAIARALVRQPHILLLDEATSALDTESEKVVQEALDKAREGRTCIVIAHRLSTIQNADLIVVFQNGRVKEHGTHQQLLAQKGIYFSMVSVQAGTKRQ

C[C@]12CC[C@@H]3c4ccc(OS(=O)(=O)O)cc4CC[C@H]3[C@@H]1CCC2=O [E3S, Estrone-3-sulfate, reference compound]
Papp A-B of E3S (BCRP): 2.79 ×10–^6 cm/s | Papp B-A of E3S (BCRP): 77.8 ×10–^6 cm/s

CCC1(c2ccccc2)C(=O)NC(=O)NC1=O [Phenobarbital]
fold induction at 48 h, 1000 µM (CYP2B6 mRNA): 9.45

C[C@H]1O[C@@H](O[C@H]2[C@@H](O)C[C@H](O[C@H]3[C@@H](O)C[C@H](O[C@H]4CC[C@@]5(C)[C@H](CC[C@@H]6[C@@H]5C[C@@H](O)[C@]5(C)[C@@H](C7=CC(=O)OC7)CC[C@]65O)C4)O[C@@H]3C)O[C@@H]2C)C[C@H](O)[C@@H]1O [Digoxin, reference compound]
Papp B→A at 60 min, 5 µM (P-gp): 25 ×10⁻⁶ cm/s

CO[C@H]1/C=C/O[C@@]2(C)Oc3c(C)c(O)c4c(O)c(c(/C=N/N5CCN(C)CC5)c(O)c4c3C2=O)NC(=O)/C(C)=C\C=C\[C@H](C)[C@H](O)[C@@H](C)[C@@H](O)[C@@H](C)[C@H](OC(C)=O)[C@@H]1C [Rifampicin, reference compound]
IC50 (OATP1B1): 866 nM | Percentage transported (OATP1B1; human, 2 min, 10 μM, pH 7.4): 0.00% | Uptake rate (OATP1B1; human, 2 min, 10 μM, pH 7.4): 3.03±0.536 pmol/mg protein/min | IC50 (OATP1B3): 611 nM | Percentage transported (OATP1B3; human, 5 min, 10 μM, pH 7.4): 0.00% | Uptake rate (OATP1B3; human, 5 min, 10 μM, pH 7.4): 4.46±0.829 pmol/mg protein/min | inhibition at 5 min, 10 µM (OATP1B3; human, pH 7.4): 100%

COc1ccc2[nH]c([S+]([O-])Cc3ncc(C)c(OC)c3C)nc2c1 (stereo not drawn) [Omeprazole]
Gene expression Fold Induction (CYP1A2 mRNA; female, 48 h, 50 µM): 25.5 fold | fold induction at 48 h, 50 µM (CYP1A2 mRNA; female): 15.6 | fold induction at 48 h, 50 µM (CYP1A2 mRNA; male): 20.3 | Enzyme activity Fold Induction (CYP1A2; female, 48 h, 50 µM): 3.37 fold | fold induction at 48 h, 50 µM (CYP1A2; female): 4.95 | fold induction at 48 h, 50 µM (CYP1A2; male): 5.22

COCCc1ccc(OCC(O)CNC(C)C)cc1 (stereo not drawn) [Metoprolol, reference compound]
Papp A→B at 60 min, 10 µM [1]: 39.4 ×10⁻⁶ cm/s | Papp B→A at 60 min, 10 µM [1]: 36.8 ×10⁻⁶ cm/s | efflux ratio at 60 min, 10 µM [1]: 0.935

CCOC(=O)c1ncn2c1CN(C)C(=O)c1cc(F)ccc1-2 [Flumazenil]
Enzyme activity Percent of PC (%) (CYP2C9; female, 48 h, 25 µM): 6.88% | fold induction at 48 h, 25 µM (CYP2C9; female): 1.11 | Enzyme activity Fold Induction (CYP2C9; male, 48 h, 25 µM): 1.14 fold | fold induction at 48 h, 25 µM (CYP2C9; male): 1.05 | Enzyme activity Percent of PC (%) (CYP2C8; female, 48 h, 25 µM): 3.75% | fold induction at 48 h, 25 µM (CYP2C8; female): 1.18 | Enzyme activity Fold Induction (CYP2C8; male, 48 h, 25 µM): 1.39 fold | fold induction at 48 h, 25 µM (CYP2C8; male): 1.05 | Gene expression Percent of PC (%) (CYP2C8 mRNA; female, 48 h, 25 µM): 15.4% | fold induction at 48 h, 25 µM (CYP2C8 mRNA; female): 1.89 | Gene expression Fold Induction (CYP2C8 mRNA; male, 48 h, 25 µM): 0.92 fold | fold induction at 48 h, 25 µM (CYP2C8 mRNA; male): 1.05 | Gene expression Percent of PC (%) (CYP2C9 mRNA; CYP2C9, donor eight): 12.1% | Gene expression Percent of PC (%) (CYP2C9 mRNA; CYP2C9, donor four): 19.7% | Gene expression Percent of PC (%) (CYP2C9 mRNA; CYP2C9, donor one): 25.6% | fold induction at 48 h, 25 µM (CYP2C9 mRNA; female, human): 1.83 | fold induction at 48 h, 25 µM (CYP2C9 mRNA; human three, cryopreserved human hepatocytes (donor four)): 1.52 | fold induction at 48 h, 25 µM (CYP2C9 mRNA; male, human, cryopreserved human hepatocytes): 1.53 | Enzyme activity Percent of PC (%) (CYP2C19; CYP2C19, donor eight): -3.72% | Enzyme activity Percent of PC (%) (CYP2C19; CYP2C19, donor four): -3.91% | Enzyme activity Percent of PC (%) (CYP2C19; CYP2C19, donor one): 1.83% | fold induction at 48 h, 25 µM (CYP2C19; human three, cryopreserved human hepatocytes, probe S-(+)-mephenytoin (80 µM), CYP2C19, donor eight): 0.87
